Measured values reported in patent publication US20240415914A1, “Water Dispersible Cannabinoid Compositions” (priority 2021, published 2024).
Read-outs that look alike come from different tables or passages of the source.

Tests used:
[1] = Stability of cannabinoid and Vitamin E components of Beverage 2 (AB Red) stored at 8° C. and 21-25° C., LCMSMS over 570 days
Experimental: The LCMSMS was calibrated for 0-50 ng/ml cannabinoids with the same resin material used in the preparation of the concentrates. At each time period, 100 μml of beverage was diluted with 10 ml of methanol and injected into the LCMSMS for analysis.

[2] = assay type: physicochemical; settings: stored at room temperature (21-25° C.)
Experimental: At each time period, 0.05 g of powder was dissolved in 10 ml-15 of ethanol, diluted to fall within the analytical range, and injected into the LCMSMS for analysis.

CCCCCc1cc2c(c(O)c1C(=O)O)[C@@H]1C=C(C)CC[C@H]1C(C)(C)O2 [D9 THCA, delta-9-tetrahydrocannabinolic acid]
Stability of Cannabinoids in AB Red ([1]; 8° C., 0 days): 1.35 µg/mL
Stability of Cannabinoids in AB Red ([1]; 8° C., 1 days): 1.34 µg/mL
Stability of Cannabinoids in AB Red ([1]; 8° C., 2 days): 1.34 µg/mL
Stability of Cannabinoids in AB Red ([1]; 8° C., 3 days): 1.35 µg/mL
Stability of Cannabinoids in AB Red ([1]; 8° C., 5 days): 1.36 µg/mL
Stability of Cannabinoids in AB Red ([1]; 8° C., 8 days): 1.35 µg/mL
Stability of Cannabinoids in AB Red ([1]; 8° C., 9 days): 1.36 µg/mL
Stability of Cannabinoids in AB Red ([1]; 8° C., 10 days): 1.35 µg/mL
Stability of Cannabinoids in AB Red ([1]; 8° C., 11 days): 1.35 µg/mL
Stability of Cannabinoids in AB Red ([1]; 8° C., 12 days): 1.32 µg/mL
Stability of Cannabinoids in AB Red ([1]; 8° C., 15 days): 1.33 µg/mL
Stability of Cannabinoids in AB Red ([1]; 8° C., 16 days): 1.31 µg/mL
Stability of Cannabinoids in AB Red ([1]; 8° C., 17 days): 1.34 µg/mL
Stability of Cannabinoids in AB Red ([1]; 8° C., 18 days): 1.35 µg/mL
Stability of Cannabinoids in AB Red ([1]; 8° C., 19 days): 1.32 µg/mL
Stability of Cannabinoids in AB Red ([1]; 8° C., 22 days): 1.34 µg/mL
Stability of Cannabinoids in AB Red ([1]; 8° C., 23 days): 1.33 µg/mL
Stability of Cannabinoids in AB Red ([1]; 8° C., 24 days): 1.33 µg/mL
Stability of Cannabinoids in AB Red ([1]; 8° C., 25 days): 1.34 µg/mL
Stability of Cannabinoids in AB Red ([1]; 8° C., 26 days): 1.33 µg/mL
Stability of Cannabinoids in AB Red ([1]; 8° C., 29 days): 1.35 µg/mL
Stability of Cannabinoids in AB Red ([1]; 8° C., 30 days): 1.31 µg/mL
Stability of Cannabinoids in AB Red ([1]; 8° C., 60 days): 1.32 µg/mL
Stability of Cannabinoids in AB Red ([1]; 8° C., 90 days): 1.34 µg/mL
Stability of Cannabinoids in AB Red ([1]; 8° C., 120 days): 1.30 µg/mL
Stability of Cannabinoids in AB Red ([1]; 8° C., 150 days): 1.34 µg/mL
Stability of Cannabinoids in AB Red ([1]; 8° C., 180 days): 1.30 µg/mL
Stability of Cannabinoids in AB Red ([1]; 8° C., 210 days): 1.33 µg/mL
Stability of Cannabinoids in AB Red ([1]; 8° C., 240 days): 1.32 µg/mL
Stability of Cannabinoids in AB Red ([1]; 8° C., 270 days): 1.33 µg/mL
Stability of Cannabinoids in AB Red ([1]; 8° C., 300 days): 1.30 µg/mL
Stability of Cannabinoids in AB Red ([1]; 8° C., 330 days): 1.34 µg/mL
Stability of Cannabinoids in AB Red ([1]; 8° C., 390 days): 1.29 µg/mL
Stability of Cannabinoids in AB Red ([1]; 8° C., 420 days): 1.29 µg/mL
Stability of Cannabinoids in AB Red ([1]; 8° C., 450 days): 1.31 µg/mL
Stability of Cannabinoids in AB Red ([1]; 8° C., 480 days): 1.28 µg/mL
Stability of Cannabinoids in AB Red ([1]; 8° C., 510 days): 1.25 µg/mL
Stability of Cannabinoids in AB Red ([1]; 8° C., 540 days): 1.26 µg/mL
Stability of Cannabinoids in AB Red ([1]; 8° C., 570 days): 1.24 µg/mL
Stability of Cannabinoids in AB Red ([1]; 21-25° C., 0 days): 1.35 µg/mL
Stability of Cannabinoids in AB Red ([1]; 21-25° C., 1 days): 1.34 µg/mL
Stability of Cannabinoids in AB Red ([1]; 21-25° C., 2 days): 1.30 µg/mL
Stability of Cannabinoids in AB Red ([1]; 21-25° C., 3 days): 1.32 µg/mL
Stability of Cannabinoids in AB Red ([1]; 21-25° C., 5 days): 1.36 µg/mL
Stability of Cannabinoids in AB Red ([1]; 21-25° C., 8 days): 1.36 µg/mL
Stability of Cannabinoids in AB Red ([1]; 21-25° C., 9 days): 1.35 µg/mL
Stability of Cannabinoids in AB Red ([1]; 21-25° C., 10 days): 1.33 µg/mL
Stability of Cannabinoids in AB Red ([1]; 21-25° C., 11 days): 1.33 µg/mL
Stability of Cannabinoids in AB Red ([1]; 21-25° C., 12 days): 1.33 µg/mL
Stability of Cannabinoids in AB Red ([1]; 21-25° C., 15 days): 1.30 µg/mL
Stability of Cannabinoids in AB Red ([1]; 21-25° C., 16 days): 1.36 µg/mL
Stability of Cannabinoids in AB Red ([1]; 21-25° C., 17 days): 1.35 µg/mL
Stability of Cannabinoids in AB Red ([1]; 21-25° C., 18 days): 1.36 µg/mL
Stability of Cannabinoids in AB Red ([1]; 21-25° C., 19 days): 1.31 µg/mL
Stability of Cannabinoids in AB Red ([1]; 21-25° C., 22 days): 1.34 µg/mL
Stability of Cannabinoids in AB Red ([1]; 21-25° C., 23 days): 1.36 µg/mL
Stability of Cannabinoids in AB Red ([1]; 21-25° C., 24 days): 1.30 µg/mL
Stability of Cannabinoids in AB Red ([1]; 21-25° C., 25 days): 1.35 µg/mL
Stability of Cannabinoids in AB Red ([1]; 21-25° C., 26 days): 1.32 µg/mL
Stability of Cannabinoids in AB Red ([1]; 21-25° C., 29 days): 1.33 µg/mL
Stability of Cannabinoids in AB Red ([1]; 21-25° C., 30 days): 1.34 µg/mL
Stability of Cannabinoids in AB Red ([1]; 21-25° C., 60 days): 1.28 µg/mL
Stability of Cannabinoids in AB Red ([1]; 21-25° C., 90 days): 1.34 µg/mL
Stability of Cannabinoids in AB Red ([1]; 21-25° C., 120 days): 1.34 µg/mL
Stability of Cannabinoids in AB Red ([1]; 21-25° C., 150 days): 1.28 µg/mL
Stability of Cannabinoids in AB Red ([1]; 21-25° C., 180 days): 1.30 µg/mL
Stability of Cannabinoids in AB Red ([1]; 21-25° C., 210 days): 1.33 µg/mL
Stability of Cannabinoids in AB Red ([1]; 21-25° C., 240 days): 1.31 µg/mL
Stability of Cannabinoids in AB Red ([1]; 21-25° C., 270 days): 1.27 µg/mL
Stability of Cannabinoids in AB Red ([1]; 21-25° C., 300 days): 1.27 µg/mL
Stability of Cannabinoids in AB Red ([1]; 21-25° C., 330 days): 1.28 µg/mL
Stability of Cannabinoids in AB Red ([1]; 21-25° C., 390 days): 1.26 µg/mL
Stability of Cannabinoids in AB Red ([1]; 21-25° C., 420 days): 1.26 µg/mL
Stability of Cannabinoids in AB Red ([1]; 21-25° C., 450 days): 1.31 µg/mL
Stability of Cannabinoids in AB Red ([1]; 21-25° C., 480 days): 1.29 µg/mL
Stability of Cannabinoids in AB Red ([1]; 21-25° C., 510 days): 1.27 µg/mL
Stability of Cannabinoids in AB Red ([1]; 21-25° C., 540 days): 1.29 µg/mL
Stability of Cannabinoids in AB Red ([1]; 21-25° C., 570 days): 1.24 µg/mL
Stability in Powder Concentrate (content by LCMSMS) ([2]; day 0): 0.150 mg/g powder
Stability in Powder Concentrate (content by LCMSMS) ([2]; day 1): 0.150 mg/g powder
Stability in Powder Concentrate (content by LCMSMS) ([2]; day 2): 0.147 mg/g powder
Stability in Powder Concentrate (content by LCMSMS) ([2]; day 3): 0.150 mg/g powder
Stability in Powder Concentrate (content by LCMSMS) ([2]; day 5): 0.146 mg/g powder
Stability in Powder Concentrate (content by LCMSMS) ([2]; day 8): 0.156 mg/g powder
Stability in Powder Concentrate (content by LCMSMS) ([2]; day 9): 0.151 mg/g powder
Stability in Powder Concentrate (content by LCMSMS) ([2]; day 10): 0.148 mg/g powder
Stability in Powder Concentrate (content by LCMSMS) ([2]; day 11): 0.145 mg/g powder
Stability in Powder Concentrate (content by LCMSMS) ([2]; day 12): 0.152 mg/g powder
Stability in Powder Concentrate (content by LCMSMS) ([2]; day 15): 0.151 mg/g powder
Stability in Powder Concentrate (content by LCMSMS) ([2]; day 16): 0.157 mg/g powder
Stability in Powder Concentrate (content by LCMSMS) ([2]; day 17): 0.156 mg/g powder
Stability in Powder Concentrate (content by LCMSMS) ([2]; day 18): 0.149 mg/g powder
Stability in Powder Concentrate (content by LCMSMS) ([2]; day 19): 0.146 mg/g powder
Stability in Powder Concentrate (content by LCMSMS) ([2]; day 22): 0.150 mg/g powder
Stability in Powder Concentrate (content by LCMSMS) ([2]; day 23): 0.147 mg/g powder
Stability in Powder Concentrate (content by LCMSMS) ([2]; day 24): 0.150 mg/g powder
Stability in Powder Concentrate (content by LCMSMS) ([2]; day 25): 0.150 mg/g powder
Stability in Powder Concentrate (content by LCMSMS) ([2]; day 26): 0.150 mg/g powder
Stability in Powder Concentrate (content by LCMSMS) ([2]; day 29): 0.152 mg/g powder
Stability in Powder Concentrate (content by LCMSMS) ([2]; day 30): 0.151 mg/g powder
Stability in Powder Concentrate (content by LCMSMS) ([2]; day 60): 0.146 mg/g powder
Stability in Powder Concentrate (content by LCMSMS) ([2]; day 90): 0.147 mg/g powder
Stability in Powder Concentrate (content by LCMSMS) ([2]; day 120): 0.147 mg/g powder
Stability in Powder Concentrate (content by LCMSMS) ([2]; day 150): 0.153 mg/g powder
Stability in Powder Concentrate (content by LCMSMS) ([2]; day 180): 0.154 mg/g powder
Stability in Powder Concentrate (content by LCMSMS) ([2]; day 210): 0.151 mg/g powder
Stability in Powder Concentrate (content by LCMSMS) ([2]; day 240): 0.148 mg/g powder
Stability in Powder Concentrate (content by LCMSMS) ([2]; day 270): 0.148 mg/g powder
Stability in Powder Concentrate (content by LCMSMS) ([2]; day 300): 0.156 mg/g powder
Stability in Powder Concentrate (content by LCMSMS) ([2]; day 330): 0.156 mg/g powder
Stability in Powder Concentrate (content by LCMSMS) ([2]; day 360): 0.155 mg/g powder
Stability in Powder Concentrate (content by LCMSMS) ([2]; day 390): 0.153 mg/g powder
Stability in Powder Concentrate (content by LCMSMS) ([2]; day 420): 0.154 mg/g powder
Stability in Powder Concentrate (content by LCMSMS) ([2]; day 450): 0.155 mg/g powder
Stability in Powder Concentrate (content by LCMSMS) ([2]; day 480): 0.149 mg/g powder
Stability in Powder Concentrate (content by LCMSMS) ([2]; day 510): 0.154 mg/g powder
Stability in Powder Concentrate (content by LCMSMS) ([2]; day 540): 0.154 mg/g powder
Stability in Powder Concentrate (content by LCMSMS) ([2]; day 570): 0.148 mg/g powder
